According to US20260146046A1, “BICYCLIC FERROPORTIN INHIBITORS” (Vifor (International) AG, priority 2022, published 2026):

Target: T1, ferroportin (Fpn) (Mus musculus, UniProt Q9JHI9)
T1 construct: endogenous in cells; host or cells: J774 mouse macrophage cell line, induced with Fe(III)NTA
T1 sequence (Q9JHI9 1-570): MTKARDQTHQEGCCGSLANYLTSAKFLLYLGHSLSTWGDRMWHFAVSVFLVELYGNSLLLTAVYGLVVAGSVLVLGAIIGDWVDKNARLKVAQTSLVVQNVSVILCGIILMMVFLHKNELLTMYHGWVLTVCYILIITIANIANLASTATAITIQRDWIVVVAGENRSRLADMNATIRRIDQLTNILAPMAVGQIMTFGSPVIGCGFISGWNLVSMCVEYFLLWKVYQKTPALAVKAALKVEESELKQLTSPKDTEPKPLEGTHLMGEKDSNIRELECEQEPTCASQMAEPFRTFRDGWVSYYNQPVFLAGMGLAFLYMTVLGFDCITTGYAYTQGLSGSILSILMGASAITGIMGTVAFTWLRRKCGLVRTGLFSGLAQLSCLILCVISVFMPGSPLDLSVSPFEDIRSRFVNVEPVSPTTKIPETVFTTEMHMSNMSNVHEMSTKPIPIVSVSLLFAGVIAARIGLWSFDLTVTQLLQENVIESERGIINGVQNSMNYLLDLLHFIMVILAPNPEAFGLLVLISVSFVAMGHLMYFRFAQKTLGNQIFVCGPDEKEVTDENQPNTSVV
Experiment: Hepcidin Internalization Assay (J774)
Assay type: cell-based
Settings: J774 cells, 25 nM TMR-hepcidin, 2 hours; average of multiple measurements; read-out: Average (AVE) IC50 of Fpn inhibitors in the hepcidin internalization assay
From the text: This cellular assay allows quantification of the binding of hepcidin to ferroportin (Fpn) through microscopic detection of internalization of a fluorescently labeled hepcidin into J774 cells. […] Binding of hepcidin to Fpn triggers internalization and degradation of both hepcidin and Fpn. […] Therefore, microscopic detection of cell-associated TMR fluorescence is a measure of hepcidin binding to Fpn and internalization of hepcidin and Fpn. If TMR-hepcidin is prevented from binding to Fpn, cellular TMR fluorescence remains low (Durrenberger et al, 2013). The effect of small molecular weight Fpn inhibitor compounds in this assay was evaluated in vitro as described below. […] Cat. 655090) and grown at 37° C. with 5% CO2. After overnight incubation, cells were washed 3 times with pre-warmed DMEM w/o phenol red, 30 μl/well of DMEM w/o phenol red was added after the final wash and 10 μl/well of dilution series of test compounds were added in triplicates. […] Cells were incubated in a total volume of 50 μl at 37° C. with 5% CO2 for 2 hours, then Hoechst 33342 dye was added to a final concentration of 0.5 μg/ml to stain nuclei and further incubated for 10 min. at 37° C. with 5% CO2. […] After removal of the paraformaldehyde solution, cells were washed 3 times with PBS leaving 100 μl per well and the plates were sealed with foil plate seal. […] The acquired image data was analysed with the […] analysis software. […] IC50 values were calculated with the Sum(Mean) raw data using “log(inhibitor) vs. response” curve fitting of Prism 5 software (GraphPad Software Inc., version 5.02). For each data set the fit of the “log(inhibitor) vs. response (three parameters)” model was compared to the fit of the “log(inhibitor) vs. response-Variable slope (four parameters)” model and the IC50 data of the preferred model was used.

SMILES: CN(C)CCn1c(CCNCCc2nc3c(NCc4ncccc4F)nccc3o2)nc2ccccc21 [Example Compound No. 20, 2-(2-((2-(1-(2-(dimethylamino)ethyl)-1H-benzo[d]imidazol-2-yl)ethyl)amino)ethyl)-N-((3-fluoropyridin-2-yl)methyl)oxazolo[4,5-c]pyridin-4-amine]
- IC50: 20 µM

SMILES: COCCn1c(CCN2CC(c3nc4c(NCc5ncccc5F)nccc4o3)C2)nc2ccccc21 [Example Compound No. 5, N-((3-fluoropyridin-2-yl)methyl)-2-(1-(2-(1-(2-methoxyethyl)-1H-benzo[d]imidazol-2-yl)ethyl)azetidin-3-yl)oxazolo[4,5-c]pyridin-4-amine]
- IC50: 0.007 µM
